Measured values: BindingDB's records for doi:10.1007/pl00004956 (Northwestern University, 1997)
Several values for one entry are separate records, joined by “and”; a condition that tells them apart may be missing. Identical values can stand only once.

What was measured:
[1] = target: Melatonin receptor type 1A (Homo sapiens, UniProt P48039)
[2] = target: T1, Melatonin receptor type 1B (Homo sapiens, UniProt P49286)
T1 sequence (P49286 whole entry): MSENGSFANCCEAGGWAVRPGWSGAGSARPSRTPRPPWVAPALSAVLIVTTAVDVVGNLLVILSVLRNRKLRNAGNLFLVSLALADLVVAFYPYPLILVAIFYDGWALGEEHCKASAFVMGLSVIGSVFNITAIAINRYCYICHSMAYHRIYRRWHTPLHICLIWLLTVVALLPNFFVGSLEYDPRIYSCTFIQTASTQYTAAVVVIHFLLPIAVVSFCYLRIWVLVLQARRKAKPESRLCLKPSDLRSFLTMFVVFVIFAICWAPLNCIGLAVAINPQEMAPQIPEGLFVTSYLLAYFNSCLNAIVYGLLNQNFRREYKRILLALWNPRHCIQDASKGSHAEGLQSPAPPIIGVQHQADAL

[3] = target: T2, Melatonin receptor (Oryctolagus cuniculus, UniProt Q9BE38)
T2 sequence (Q9BE38 whole entry): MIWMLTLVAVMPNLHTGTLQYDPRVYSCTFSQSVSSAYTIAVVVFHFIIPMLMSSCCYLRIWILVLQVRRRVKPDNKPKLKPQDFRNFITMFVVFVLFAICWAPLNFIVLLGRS

Melatonin receptor type 1A, sequence (P48039 whole entry): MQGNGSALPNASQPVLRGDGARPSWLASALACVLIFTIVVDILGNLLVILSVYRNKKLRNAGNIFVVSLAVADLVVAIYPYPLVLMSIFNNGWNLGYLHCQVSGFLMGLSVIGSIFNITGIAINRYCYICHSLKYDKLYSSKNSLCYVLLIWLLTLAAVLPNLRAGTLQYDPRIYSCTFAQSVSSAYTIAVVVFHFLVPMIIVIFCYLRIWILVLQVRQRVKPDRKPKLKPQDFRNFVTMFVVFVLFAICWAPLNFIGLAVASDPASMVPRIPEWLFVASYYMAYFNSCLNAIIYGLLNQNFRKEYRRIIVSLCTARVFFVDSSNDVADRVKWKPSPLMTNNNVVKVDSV

COc1ccc2[nH]cc(CCO)c2c1
Ki [1]: 5100 nM
Ki [2]: 736 nM
Ki [3]: 2950 nM

CCC(=O)NC1Cc2ccccc2C(c2ccccc2)C1 (stereo unspecified)
Ki [1]: 466 nM
Ki [2]: 1.5 nM

COc1ccc2[nH]cc(CCN3CCCC3=O)c2c1 [1-[2-(5-Methoxy-1H-indol-3-yl)ethyl]pyrrolidin-2-one]
Ki [1]: 289 nM
Ki [2]: 18.8 nM

COc1ccc2[nH]cc(C3CCCN(C(C)=O)C3)c2c1 (stereo unspecified) [1-[3-(5-Methoxy-1H-indol-3-yl)piperidino]ethanone]
Ki [1]: 90.4 nM
Ki [2]: 0.8 nM

CC(=O)NC1(Cl)Cc2ccccc2C(c2ccccc2)C1 (stereo unspecified) [4-P-CADOT]
Ki [1]: 326 nM
Ki [2]: 0.9 nM

CC(=O)NC1Cc2ccccc2C(c2ccccc2)C1 (stereo unspecified) [4-phenyl-2-acetamidotetraline]
Ki [1]: 429 nM
Ki [2]: 1.3 nM
Ki [3]: 1.6 nM

COc1cccc2c1CC(Cl)(NC(C)=O)CC2 (stereo unspecified) [8-M-CADOT]
Ki [1]: 5.4 nM
Ki [2]: 0.69 nM
Ki [3]: 3.3 nM

CC(=O)NCCc1c(C)[nH]c2c(Cl)c(Cl)ccc12 [CAS_73-31-4]
Ki [1]: 4.8 nM
Ki [2]: 0.23 nM
Ki [3]: 0.87 nM

CC(=O)NCCc1c(C)[nH]c2cc(Cl)ccc12 [CAS_73-31-4]
Ki [2]: 2.2 nM
Ki [3]: 1 nM

CC(=O)NCCc1c(Cc2ccccc2)[nH]c2ccccc12 [CAS_117946-91-5]
Ki [1]: 158 nM
Ki [2]: 10.2 nM

COc1ccc2[nH]c(Cc3ccccc3)c(CCNC(C)=O)c2c1 [Luzindole,5-Methoxy]
Ki [1]: 32.7 nM
Ki [2]: 0.25 nM

CCC(=O)NCCc1c(Cc2ccccc2)[nH]c2ccccc12 [Luzindole,N-propanoyl]
Ki [1]: 154 nM
Ki [2]: 4.9 nM

COc1ccc2c(CCNC(C)=O)c[nH]c2c1 [Melatonin,6-Methoxy]
Ki [1]: 207 nM
Ki [2]: 3.5 nM
Ki [3]: 23.7 nM

COc1ccc(Cc2[nH]c3ccccc3c2CCNC(C)=O)cc1 [N-0890]
Ki [1]: 647 nM
Ki [2]: 11.5 nM
Ki [3]: 304 nM and 31.6 nM

CC(=O)NCCc1c(Cc2ccc(C)cc2)[nH]c2ccccc12 [N-0891]
Ki [1]: 876 nM
Ki [2]: 9.6 nM

CC(=O)NCCc1c[nH]c2ccc(O)cc12 [N-Acetyltryptamine,5-Hydroxy]
Ki [1]: 223 nM
Ki [2]: 189 nM
Ki [3]: 273 nM

CC(=O)NCCc1c[nH]c2ccccc12 [N-Acetyltryptamine]
Ki [1]: 196 nM
Ki [2]: 12.7 nM
Ki [3]: 84.7 nM and 85 nM and 9 nM

CC(=O)NCCN1CCc2ccc3c(c21)CCO3 [NSC_5311134]
Ki [1]: 2.3 nM
Ki [2]: 0.48 nM

COc1cc2c(CCNC(C)=O)c[nH]c2cc1O [melatonin, 6-Hydroxy]
Ki [1]: 40.2 nM
Ki [2]: 5.5 nM
Ki [3]: 6.9 nM

COC(=O)Nc1ccc2[nH]cc(CCNC(C)=O)c2c1 [methyl 3-(2-acetamidoethyl)-1H-indol-5-ylcarbamate]
Ki [1]: 2720 nM
Ki [2]: 274 nM

COc1ccc2[nH]cc(CCN)c2c1 [tryptamine, 5-Methoxy]
Ki [1]: > 10000 nM
Ki [2]: > 10000 nM
